Laboratory results published in paper PMC10821124, “Dimeric 3,5-Bis(benzylidene)-4-piperidones: Tumor-Selective Cytotoxicity and Structure-Activity Relationships” (Medicines, 2024).
Entries after “also recorded” stand apart in the source; their conditions may differ.

How the values were obtained:
[1] = test system: human promyelocytic leukemia HL-60 cells; assay: Cytotoxicity, MTT method, HL-60 cells; assay type: cell-based; details: for CC50: Homo sapiens, HL-60, 48 h, MTT, mean ± SD, read-out: CC50 HL-60; for SI (selectivity index) HL-60: average CC50 non-malignant cells / CC50 HL-60
Description: (§1) Human promyelocytic leukemia [HL-60 (RCB3683)] (purchased from Riken Cell Bank, Tsukuba, Japan) was cultured at 37 °C in RPMI1640 medium (Fujifilm Wako Pure Chemical Co., Osaka, Japan) supplemented with 10% heat (56 °C, 30 min) inactivated FBS (Sigma-Aldrich Inc. St. Louis, MO, USA), 100 U/mL penicillin G, and 100 µg/mL streptomycin sulfate in a humidified 5% CO2 incubator (MCO-170 AICUVD-P, Panasonic Healthcare Co., Ltd., Gunma, Japan). Human oral squamous cell carcinoma (OSCC) cell lines derived from tongue [HSC-2 (RCB1945), HSC-3 (RCB1975), HSC-4 (RCB1902)] (Riken Cell Bank), and human normal oral cells (gingival fibroblasts, HGF; pulp cell, HPC; periodontal ligament fibroblast, HPLF), established from the first premolar extracted tooth in the lower jaw and periodontal tissues of a child, according to the guidelines of Meikai University Ethic Committee (No. A0808), were cultured in DMEM medium (Fujifilm Wako Pure Chemical Co.) supplemented with 10% FBS and antibiotics. The compounds in Series 2–4 were evaluated against HL-60, HSC-2, HSC-3, HSC-4, HGF, HPC, and HPLF cells based on a literature procedure, as described previously. In brief, near confluent cells were incubated in triplicate for 48 h at 37 °C with different concentrations ([…], 6.3, 12.5, 25, 50, 100 µM) of the compounds; then, viable cell numbers were measured using the MTT method. From the dose–response curve, a 50% cytotoxic concentration (CC50) was determined. All samples were dissolved in dimethylsulfoxide (DMSO). The toxicity of DMSO alone was calculated and subtracted. The CC50 values were determined from dose–response curves.

[2] = test system: human oral squamous cell carcinoma HSC-2 cells; assay: Cytotoxicity, MTT method, HSC-2 cells; assay type: cell-based; details: for CC50: Homo sapiens, HSC-2, 48 h, MTT, mean ± SD, read-out: CC50 HSC-2; for SI (selectivity index) HSC-2: average CC50 non-malignant cells / CC50 HSC-2
Description: as §1

[3] = test system: human oral squamous cell carcinoma HSC-3 cells; assay: Cytotoxicity, MTT method, HSC-3 cells; assay type: cell-based; details: for CC50: Homo sapiens, HSC-3, 48 h, MTT, mean ± SD, read-out: CC50 HSC-3; for SI (selectivity index) HSC-3: average CC50 non-malignant cells / CC50 HSC-3
Description: as §1

[4] = test system: human oral squamous cell carcinoma HSC-4 cells; assay: Cytotoxicity, MTT method, HSC-4 cells; assay type: cell-based; details: for CC50: Homo sapiens, HSC-4, 48 h, MTT, mean ± SD, read-out: CC50 HSC-4; for SI (selectivity index) HSC-4: average CC50 non-malignant cells / CC50 HSC-4
Description: as §1

[5] = Cytotoxicity, MTT method, HGF non-malignant cells; assay type: cell-based, human; details: human, gingival fibroblasts (HGF), non-malignant, mean ± SD
Description: as §1

[6] = Cytotoxicity, MTT method, HPC non-malignant cells; assay type: cell-based, human; details: human, pulp cells (HPC), non-malignant, mean ± SD
Description: as §1

[7] = Cytotoxicity, MTT method, HPLF non-malignant cells; assay type: cell-based, human; details: human, periodontal ligament fibroblasts (HPLF), non-malignant, mean ± SD
Description: as §1

[8] = test system: human tumour cell lines HL-60, HSC-2, HSC-3, HSC-4; assay: Cytotoxicity, average over the four human tumour cell lines; assay type: cell-based; details: for CC50: Homo sapiens, average of HL-60, HSC-2, HSC-3, HSC-4, read-out: AVE. CC50, human tumour cell lines; for AVE SI: average of the four SI values
Description: as §1

[9] = Cytotoxicity, average over the three human normal cells; assay type: cell-based; details: human, average of HGF, HPC, HPLF; read-out: AVE CC50, human normal cells
Description: as §1

caspases-3 and -7 = assay: Caspase-Glo 3/7 assay in HSC-2 cells; assay type: cell-based, human; details: 0.5 µM, 24 h
Description: Both 3b (0.5 µM) and 3c (0.5 µM) were examined for their ability to activate caspases-3 and -7 in HSC cells. This determination was accomplished using the Caspase-Glo 3/7 assay (Promega Corporation, Madison, WI, USA). In brief, this assay uses a tetrapeptide sequence DEVD, which is optimized for caspase and luciferase activities. The cell lysate was incubated with the Caspase-Glo reagent (buffer and substrate) for 1 h and the luminescence was measured. The resultant luminescent signal produced by luciferase was confirmed to be proportional to the amount of caspase-3 and -7 activity.

PARP1 = PARP1 cleavage, western blot in HSC-2 cells; assay type: cell-based, human; details: 0.5 µM, 24 h
Description: (§2) Antibodies against cleaved PARP1, bim, bax, puma, and bak were obtained from Cell Signaling Technology (Beverley, MA, USA) while the anti-actin antibody was purchased from Santa Cruz Biotechnology (Santa Cruz, CA, USA).
(§3) The HSC-2 cells were cultured for 24 h and, then, treated with 0.5 µM of 3b or 3c for 24 h. The cells were scraped and collected in lysis buffer (purchased from Cell Signaling Technology), which contained 1 mM of phenylmethanesulfonyl fluoride and one tablet of protease inhibitor cocktail (Complete, EDTA-free; Roche Diagnostics, Mannheim, Germany). The proteins were subjected to 8% SDS-polyacrylamide gel electrophoresis and, then, transferred to a polyvinylidene difluoride membrane saturated with 5% nonfat dry milk. The membranes were incubated with rabbit monoclonal anti-cleaved PARP (Cell Signaling Technology, Beverly, MA, USA; #9541, 1:1000), or beta-actin antibody (Sigma-Aldrich, St Louis, MO, USA; A5441, 1:10,000) for 1 h at room temperature. The membranes were washed with Tris-buffered saline containing 0.1% Tween 80. And, the secondary antibodies were horseradish peroxidase-conjugated goat antimouse or antirabbit, which reacted with the chemoluminescent substrate system and were exposed to X-ray films.

HSC-2 cells = assay: Cell cycle analysis of HSC-2 cells; assay type: cell-based, human; details: 0.5 µM, 24 h
Description: The effect of 3b (0.5 µM) and 3c (0.5 µM) on the phase distribution of HSC-2 cells after 24 h of incubation was determined using the protocol of a manufacturer (BD Pharmingen, BD BioSciences, San Jose, CA, USA). In brief, treated and untreated cells were suspended at a density of ~1 × 10^6 cells/mL in cooled phosphate-buffered saline (PBS) without calcium and magnesium ions and fixed with 70% ethanol overnight at −20 °C. The cells were washed with cooled PBS and re-suspended in a propidium iodide/RNase staining buffer in the dark at room temperature for 0.25 h. Both acquisition and analysis were performed using EPICS ALTRA (Beckman Coulter, Brea, CA, USA) and EXPO 32 software.

bim, bax, puma, and bak = assay: Pro-apoptotic proteins bim, bax, puma, bak in HSC-2 cells; assay type: cell-based, human; details: 24 h, data not shown
Description: as §2, §3

HCT116 cells [10] = assay: Mitochondrial membrane potential determination in HCT116 cells; assay type: cell-based, human; details: 48 h, tetramethylrhodamine ethyl ester
Description: The determination of the IC50 values of 3b, 3c, and 5-FU on the mitochondrial membrane potential in HCT 116 cells was undertaken using a literature procedure. In brief, the cells were incubated at 37 °C in an atmosphere of 5% carbon dioxide for 24 h. The compounds were dissolved in DMSO, added to the cells, and incubated for 48 h. Then, […], and 2,4-dinitrophenol (DNP) were added to the cells, which were incubated for 0.5 h. After the addition of tetramethylrhodamine ethyl ester, the fluorescence of the cells was determined using a plate reader.

HCT116 cells [11] = assay: Reactive oxygen species determination in HCT116 cells; assay type: cell-based, human; details: for Generation of reactive oxygen species (ROS): 48 h, dichlorofluorescein fluorescence
Description: The determination of the effects of 3b, 3c, and 5-FU on the generation of reactive oxygen species in HCT 116 cells was accomplished using a literature procedure. In brief, the cells were incubated at 37 °C in an atmosphere of 5% carbon dioxide for 24 h. Subsequently, solutions of the compounds in DMSO were added to the cells, which were incubated for 48 h. After 2′,7′-dichlorofluorescein was added to the cells, incubation continued for another 0.5 h and the fluorescence of the cells was measured spectrophotometrically (excitation wavelength 485 nm; emission wavelength, 530 nm).

[12] = test system: human normal cells HGF, HPC, HPLF; assay: Cytotoxicity, average over the three human normal cells; assay type: cell-based; details: average of HGF, read-out: AVE CC50, human normal cells
Description: as §1

SMILES	CC50 [1] [µM]	SI (selectivity index) HL-60 [1]	CC50 [2] [µM]	SI (selectivity index) HSC-2 [2]	CC50 [3] [µM]	SI (selectivity index) HSC-3 [3]	CC50 [4] [µM]	SI (selectivity index) HSC-4 [4]	CC50 at 48 h [5] [µM]	CC50 at 48 h [6] [µM]	CC50 at 48 h [7] [µM]	CC50 [8] [µM]	AVE SI [8]	CC50 at 48 h [9] [µM]	Induction of caspases-3 and -7 (caspases-3 and -7)	Cleavage of PARP1 (PARP1)	Cell cycle effect (HSC-2 cells)	Effect on pro-apoptotic proteins bim, bax, puma, bak (bim, bax, puma, and bak)	Effect on mitochondrial membrane potential (MMP) (HCT116 cells [10])	CC50 [12] [µM]	further results
O=C1/C(=C/c2ccc(F)cc2)CN(C(=O)CC(=O)N2C/C(=C\c3ccc(F)cc3)C(=O)/C(=C/c3ccc(F)cc3)C2)C/C1=C\c1ccc(F)cc1 [Compound 3b]	0.028 ± 0.001	151	0.041 ± 0.004	103	0.046 ± 0.011	92.0	0.023 ± 0.003	184	3.8 ± 0.71	3.2 ± 1.1	5.7 ± 0.67	0.04	133	4.23	induced caspases-3 and -7	causing the cleavage of PARP; also recorded: leads to the cleavage of PARP1	G2M arrest in the cell cycle; also recorded: causes a G2/M arrest	no changes in the concentrations of these proteins were observed	huge effect on lowering the MMP		CC50 values in all four bioassays (range in words) ([8]; HL-60, HSC-2, HSC-3, HSC-4): double-digit nanomolar range; ROS generation, potency relative to 3c (HCT116 cells [11]): approximately twice the potency of 3c; Generation of reactive oxygen species (ROS) (HCT116 cells [11]): cause an increase in the ROS concentrations
CN(C)c1ccc(/C=C2\CN(C(=O)C(=O)N3C/C(=C\c4ccc(N(C)C)cc4)C(=O)/C(=C/c4ccc(N(C)C)cc4)C3)C/C(=C\c3ccc(N(C)C)cc3)C2=O)cc1 [Compound 2i]	> 100	~1.00	> 100	~1.00	> 100	~1.00	> 100	~1.00	> 100	> 100	> 100	> 100	~1.00	> 50						> 100	
O=C1/C(=C/c2ccc(Cl)cc2)CN(C(=O)C(=O)N2C/C(=C\c3ccc(Cl)cc3)C(=O)/C(=C/c3ccc(Cl)cc3)C2)C/C1=C\c1ccc(Cl)cc1 [Compound 2c]	4.4 ± 0.17	16.9	3.7 ± 0.6	20.1	11 ± 1.1	6.76	6.7 ± 3	11.1	56 ± 6.7	78 ± 37	89 ± 9.3	6.45	13.7	> 50						74.3	
COc1ccc(/C=C2\CN(C(=O)C(=O)N3C/C(=C\c4ccc(OC)cc4)C(=O)/C(=C/c4ccc(OC)cc4)C3)C/C(=C\c3ccc(OC)cc3)C2=O)cc1 [Compound 2h]	15 ± 0.42	>5.45	7.8 ± 1.3	>10.5	9.2 ± 4.7	>8.88	9.6 ± 0.17	>8.51	82 ± 14	63 ± 8	> 100	10.4	>8.34	> 50						> 81.7	
O=C1/C(=C/c2ccc(Cl)cc2)CN(C(=O)CC(=O)N2C/C(=C\c3ccc(Cl)cc3)C(=O)/C(=C/c3ccc(Cl)cc3)C2)C/C1=C\c1ccc(Cl)cc1 [Compound 3c]	5 ± 0.76	8.26	5.5 ± 0.65	7.51	13 ± 2.2	3.18	5.5 ± 0.96	7.51	41 ± 2.5	38 ± 8.7	45 ± 11	7.25	6.62	41.3	does not exert these effects	does not exert these effects	does not exert these effects	no changes in the concentrations of these proteins were observed	no effect at the concentrations utilized		Generation of reactive oxygen species (ROS) (HCT116 cells [11]): cause an increase in the ROS concentrations
O=C1/C(=C/c2ccc(Cl)c(Cl)c2)CN(C(=O)CC(=O)N2C/C(=C\c3ccc(Cl)c(Cl)c3)C(=O)/C(=C/c3ccc(Cl)c(Cl)c3)C2)C/C1=C\c1ccc(Cl)c(Cl)c1 [Compound 3d]	65 ± 6.1	>1.54	73 ± 3.5	>1.37	76 ± 13	>1.32	79 ± 5.5	>1.27	> 100	> 100	> 100	73.3	>1.38	> 50						> 100	
